pIC50: −log10 of the molar value.
Legend:
[1] = target: Lysine-specific histone demethylase 1A (Homo sapiens, UniProt O60341)
Description: Inhibition of recombinant human LSD1 (157 to 852 residues) expressed in Escherichia coli BL21(DE3) using H3K4me2 as substrate preincubated for 1 hr followed by substrate addition by fluorescence assay

MGC-803 [2] = test: cells; settings: Homo sapiens, MGC-803, read-out: GI
Description: Cytotoxicity against human MGC803 cells assessed as growth inhibition at 10 uM by MTT assay relative to control

ECa-109 cell line [3] = test: cells; settings: Homo sapiens, ECa-109, read-out: GI
Description: Cytotoxicity against human EC109 cells assessed as growth inhibition at 10 uM by MTT assay relative to control

A549 [4] = test: cells; settings: Homo sapiens, A549, read-out: GI
Description: Cytotoxicity against human A549 cells assessed as growth inhibition at 10 uM by MTT assay relative to control

PC-9 [5] = test: cells; settings: Homo sapiens, PC-9, read-out: GI
Description: Cytotoxicity against human PC9 cells assessed as growth inhibition at 10 uM by MTT assay relative to control

A549 [6] = test: cells; settings: Homo sapiens
Description: Cytotoxicity against human A549 cells assessed as growth inhibition by MTT assay

PC-9 [7] = test: cells; settings: Homo sapiens
Description: Cytotoxicity against human PC9 cells assessed as growth inhibition by MTT assay

MGC-803 [8] = test: cells; settings: Homo sapiens
Description: Cytotoxicity against human MGC803 cells assessed as growth inhibition by MTT assay

ECa-109 cell line [9] = test: cells; settings: Homo sapiens
Description: Cytotoxicity against human EC109 cells assessed as growth inhibition by MTT assay

SMILES	pIC50 [1]	inhibition of growth at 10 µM (MGC-803 [2]) [%]	inhibition of growth at 10 µM (ECa-109 cell line [3]) [%]	inhibition of growth at 10 µM (A549 [4]) [%]	inhibition of growth at 10 µM (PC-9 [5]) [%]	pIC50 (A549 [6])	pIC50 (PC-9 [7])	pIC50 (MGC-803 [8])	pIC50 (ECa-109 cell line [9])
Cc1cc(NCCCn2ccnc2)n2nc(SCc3ccccc3)nc2n1	< 5.00	26.2	12.8	50.2	47.7	4.79	4.91		
Cc1cc(N2CCN(CCO)CC2)n2nc(SCc3ccccc3)nc2n1	< 5.00	23.8	5.9	42.1	14.9				
Cc1cc(Nc2ccc(C(=O)/C=C/c3cccs3)cc2)n2nc(SCc3nc4ccccc4[nH]3)nc2n1	< 5.00	29.6	38.3	51.1	40.4	5.00	4.96	5.10	4.98
Cc1cc(NNC(=O)c2cnccn2)n2nc(SCc3nc4ccccc4[nH]3)nc2n1	6.25	8.6	35.5	65.2	52.5	4.99	4.91		
Cc1cc(N)n2nc(SCc3ccccc3)nc2n1	< 5.00	32.3	4.7	57.3	48.3	5.01	5.09		
Cc1cc(Nc2ccc(C#N)cc2)n2nc(SCc3nc4ccccc4[nH]3)nc2n1	< 5.00	19.3	26.3	52.3	41.9	4.86			
Cc1cc(NCCCO)n2nc(SCc3ccccc3)nc2n1	< 5.00	33.3	6.3	53.7	51.4	5.05	4.97		
Cc1cc(N2CCNCC2)n2nc(SCc3ccccc3)nc2n1	< 5.00	32.4	23.9	41.4	29.3				
Cc1cc(Nc2ccc(Cl)cc2)n2nc(SCc3nc4ccccc4[nH]3)nc2n1	< 5.00	16.8	41.2	34.9	33.2				
COc1cc(Nc2cc(C)nc3nc(SCc4nc5ccccc5[nH]4)nn23)cc(OC)c1OC	< 5.00	28	34.1	52.4	42.9	4.75			
Cc1ccc(Nc2cc(C)nc3nc(SCc4nc5ccccc5[nH]4)nn23)cc1	< 5.00	22.9	43.1	35.1	36.9				
O=C(O)c1ccc(CN2CCC(CN[C@@H]3C[C@H]3c3ccccc3)CC2)cc1 [GSK2879552]	7.62							< 4.30	< 4.30
COc1cc(Nc2cc(C)nc3nc(SCc4ccccc4)nn23)cc(OC)c1OC	< 5.00	32.8	41.6	37.9	13.5				
Cc1cc(NCCc2c[nH]c3ccccc23)n2nc(SCc3ccccc3)nc2n1	< 5.00	34.2	7	43.9	24				
Cc1cc(NNC(=O)c2cnccn2)n2nc(SCc3ccccc3)nc2n1	5.92	35.3	23.3	40.9	63.2		4.90		
Cc1cc(Nc2ccc(C(=O)O)cc2)n2nc(SCc3ccccc3)nc2n1	< 5.00	26.7	14.3	34.6	30.7				
